Experimental data: ChEMBL document CHEMBL1201862, “PubChem BioAssay data set” (2004)
Calls of active or inactive are those of the source.

Tests used:
Cytochrome P450 1A2 = molecular target: T1, Cytochrome P450 1A2 (Homo sapiens, UniProt P05177);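 note: PubChem cytochrome P450 panel assay, CYP1A2 panel member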
T1 sequence (P05177 whole entry): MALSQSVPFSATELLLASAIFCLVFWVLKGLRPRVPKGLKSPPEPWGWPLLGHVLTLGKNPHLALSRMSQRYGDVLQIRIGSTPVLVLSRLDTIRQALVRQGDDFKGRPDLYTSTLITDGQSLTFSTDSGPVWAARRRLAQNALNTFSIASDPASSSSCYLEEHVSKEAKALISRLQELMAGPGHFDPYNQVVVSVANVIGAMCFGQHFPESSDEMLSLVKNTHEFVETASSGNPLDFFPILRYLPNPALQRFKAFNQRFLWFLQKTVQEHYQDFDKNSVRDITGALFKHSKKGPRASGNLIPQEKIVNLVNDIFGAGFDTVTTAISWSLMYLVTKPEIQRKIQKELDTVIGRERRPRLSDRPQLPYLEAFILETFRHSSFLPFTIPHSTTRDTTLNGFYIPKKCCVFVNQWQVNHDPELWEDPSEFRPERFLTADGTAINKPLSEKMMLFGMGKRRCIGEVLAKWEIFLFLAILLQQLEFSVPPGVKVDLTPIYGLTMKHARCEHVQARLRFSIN

Cytochrome P450 2C19 = Cytochrome P450 2C19 (Homo sapiens, UniProt P33261); test: Cytochrome panel assay with activity outcomes. Panel member name: p450-cyp2c19 Compounds with AC50 equal or less than 10 uM are considered active; assay type: functional
Cytochrome P450 3A4 = Cytochrome P450 3A4 (Homo sapiens, UniProt P08684);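 note: CYP3A4 tested as one member of a cytochrome P450 panel screen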
Protein RecA = molecular target: T2, Protein RecA (Mycobacterium tuberculosis, UniProt P9WHJ3); test: Fluorescence Cell-Free Homogeneous Dose Retest to Identify Inhibitors of RecA-Intein Splicing Activity. [Related pubchem assays (depositor defined):AID2097, AID2223, AID489010, AID492950]; assay type: functional
T2 sequence (P9WHJ3 whole entry): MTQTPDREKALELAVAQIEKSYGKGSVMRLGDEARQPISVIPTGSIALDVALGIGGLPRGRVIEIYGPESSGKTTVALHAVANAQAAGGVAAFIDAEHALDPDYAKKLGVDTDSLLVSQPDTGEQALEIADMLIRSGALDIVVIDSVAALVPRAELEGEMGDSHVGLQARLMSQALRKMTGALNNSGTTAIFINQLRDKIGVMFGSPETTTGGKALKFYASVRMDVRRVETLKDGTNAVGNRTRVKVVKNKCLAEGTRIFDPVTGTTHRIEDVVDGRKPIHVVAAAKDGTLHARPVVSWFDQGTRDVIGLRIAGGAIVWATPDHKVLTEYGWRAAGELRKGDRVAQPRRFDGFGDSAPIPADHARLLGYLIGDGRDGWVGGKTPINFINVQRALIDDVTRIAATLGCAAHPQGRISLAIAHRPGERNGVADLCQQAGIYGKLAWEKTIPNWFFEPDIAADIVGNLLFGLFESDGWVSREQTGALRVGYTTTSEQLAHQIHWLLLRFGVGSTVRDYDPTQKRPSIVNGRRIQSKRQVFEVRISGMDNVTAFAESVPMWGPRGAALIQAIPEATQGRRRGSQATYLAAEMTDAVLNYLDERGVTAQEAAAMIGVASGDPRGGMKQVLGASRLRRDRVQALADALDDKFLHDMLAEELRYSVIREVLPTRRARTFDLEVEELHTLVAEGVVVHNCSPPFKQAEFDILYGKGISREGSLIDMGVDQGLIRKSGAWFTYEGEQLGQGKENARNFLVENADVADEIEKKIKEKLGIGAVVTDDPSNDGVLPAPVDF

[1] = molecular target: T3, Replicative DNA helicase DnaB (Mycobacterium tuberculosis, UniProt P9WMR3); test: DnaB intein splicing inhibitors, dose response, biochemical, cell-free fluorescence (AID 449749); assay type: functional
T3 sequence (P9WMR3 whole entry): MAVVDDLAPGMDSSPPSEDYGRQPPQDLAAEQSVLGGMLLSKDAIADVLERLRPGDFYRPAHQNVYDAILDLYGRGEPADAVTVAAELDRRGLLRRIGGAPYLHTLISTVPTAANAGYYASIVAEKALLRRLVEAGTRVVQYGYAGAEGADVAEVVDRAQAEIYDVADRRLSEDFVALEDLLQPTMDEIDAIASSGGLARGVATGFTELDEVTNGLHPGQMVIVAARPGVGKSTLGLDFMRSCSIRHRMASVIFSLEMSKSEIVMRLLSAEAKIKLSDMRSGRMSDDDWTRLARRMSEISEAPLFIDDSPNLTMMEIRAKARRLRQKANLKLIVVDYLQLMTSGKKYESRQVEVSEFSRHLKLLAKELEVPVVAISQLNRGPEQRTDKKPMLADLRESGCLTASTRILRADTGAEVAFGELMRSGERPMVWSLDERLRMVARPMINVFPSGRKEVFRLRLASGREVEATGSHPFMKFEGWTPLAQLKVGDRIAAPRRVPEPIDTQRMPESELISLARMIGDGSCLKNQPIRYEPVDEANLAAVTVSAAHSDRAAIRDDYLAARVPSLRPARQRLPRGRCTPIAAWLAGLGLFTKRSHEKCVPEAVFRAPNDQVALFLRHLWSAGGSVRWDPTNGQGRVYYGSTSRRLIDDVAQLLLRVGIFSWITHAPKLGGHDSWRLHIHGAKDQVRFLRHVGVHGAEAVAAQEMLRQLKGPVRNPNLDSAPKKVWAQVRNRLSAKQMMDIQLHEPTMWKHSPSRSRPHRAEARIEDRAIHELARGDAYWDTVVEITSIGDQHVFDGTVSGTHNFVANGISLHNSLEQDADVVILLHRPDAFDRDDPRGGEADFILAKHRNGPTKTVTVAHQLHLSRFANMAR

[2] = Luminescence Cell-Based Dose Retest to Confirm Inhibitors of Cancer Stem Cells. [Related pubchem assays (depositor defined):AID2717, AID2721]; assay type: functional; conditions: Homo sapiens
[3] = system: Streptococcus sp. 'group A'; test: growth inhibition of control SK(-) GAS strain, dose response, counter-screen for streptokinase expression inhibitor project, luminescence, kanamycin, BacTiterGlo, confirmation (AID 1900); assay type: functional, organism-based
Streptococcus = test: Group A Streptococcus viability loss, dose response, counter-screen for streptokinase expression inhibitor project, luminescence, BacTiterGlo (AID 1915); assay type: functional, organism-based;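 note: potency for reduction of bacterial viability or growth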

Sequence of Cytochrome P450 2C19 (P33261 whole entry): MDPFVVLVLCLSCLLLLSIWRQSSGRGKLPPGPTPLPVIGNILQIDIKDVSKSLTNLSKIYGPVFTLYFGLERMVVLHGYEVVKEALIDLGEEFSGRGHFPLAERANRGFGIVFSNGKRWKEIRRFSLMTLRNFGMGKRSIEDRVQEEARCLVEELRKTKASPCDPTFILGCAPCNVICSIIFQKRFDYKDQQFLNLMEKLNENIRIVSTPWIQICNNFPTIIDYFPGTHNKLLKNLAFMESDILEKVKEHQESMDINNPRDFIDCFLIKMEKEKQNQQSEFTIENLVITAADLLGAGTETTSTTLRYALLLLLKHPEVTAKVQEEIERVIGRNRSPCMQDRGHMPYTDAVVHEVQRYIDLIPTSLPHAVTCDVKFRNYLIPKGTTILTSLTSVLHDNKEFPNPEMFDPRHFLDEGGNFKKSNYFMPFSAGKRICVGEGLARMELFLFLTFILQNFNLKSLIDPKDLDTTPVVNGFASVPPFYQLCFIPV
Sequence of Cytochrome P450 3A4 (P08684 whole entry): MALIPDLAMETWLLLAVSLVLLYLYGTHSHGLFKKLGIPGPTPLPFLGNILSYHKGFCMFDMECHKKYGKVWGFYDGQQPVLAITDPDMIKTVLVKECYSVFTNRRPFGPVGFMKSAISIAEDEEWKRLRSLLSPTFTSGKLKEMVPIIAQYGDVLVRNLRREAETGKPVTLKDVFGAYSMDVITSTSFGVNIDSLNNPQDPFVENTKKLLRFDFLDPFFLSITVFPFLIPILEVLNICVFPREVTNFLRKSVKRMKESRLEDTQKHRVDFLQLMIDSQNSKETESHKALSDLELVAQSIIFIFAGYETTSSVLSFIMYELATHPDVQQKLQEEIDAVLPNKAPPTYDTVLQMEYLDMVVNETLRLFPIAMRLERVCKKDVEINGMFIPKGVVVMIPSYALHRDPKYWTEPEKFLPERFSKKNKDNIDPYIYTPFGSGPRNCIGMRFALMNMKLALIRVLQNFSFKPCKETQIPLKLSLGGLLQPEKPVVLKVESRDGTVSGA

For COC(=O)COc1ccsc1C(=O)OC, the AC50 (Cytochrome P450 1A2) was 28.2 µM (inconclusive).
With Cc1cc(NC(=O)C2CCCC2)n(-c2nc3ccccc3[nH]2)n1 the AC50 (Cytochrome P450 2C19; read-out: AC50) was 10 µM (inconclusive).
For COc1ccc(-n2c(=O)cnc3cnc(OC)nc32)cc1, the AC50 (Cytochrome P450 1A2) was 20 µM (inconclusive).
For CC(C)(C)n1nc2c(c1NC(=O)c1ccc(S(=O)(=O)N3CCCCC3)cc1)C[S+]([O-])C2 (stereo unspecified), the AC50 (Cytochrome P450 2C19; read-out: AC50) was 25.1 µM (inconclusive) and the AC50 (Cytochrome P450 3A4) was 14.1 µM (inconclusive).
In the case of Cc1ccc(-c2nc(CN3CCCC(C(=O)N4CCOCC4)C3)c(C)o2)cc1 (stereo unspecified), the EC50 (Protein RecA) is reported as > 380 µM (inactive) and the AC50 [1] is reported as > 380 µM (inactive).
With CN(C)c1ncc2nc(-c3cc(F)cc(F)c3)c(=O)n(C[C@H]3CCCO3)c2n1 the AC50 (Cytochrome P450 1A2) was 0.0794 µM (inconclusive).
For C[C@](N)(C(=O)O)c1ccc(-c2nnn[nH]2)cc1, the AC50 (Cytochrome P450 2C19; read-out: AC50) was 7.94 µM (inconclusive) and the AC50 (Cytochrome P450 1A2) was 39.8 µM (inconclusive).
With O=C(O)COc1ccc(/C=C2/SC(=S)N(Cc3ccccc3)C2=O)cc1 the EC50 (Protein RecA) was 8.33 µM (active) and the AC50 [1] was 13.7 µM (active).
With CC(Oc1ccccc1)C(=O)Nc1nc2c(s1)C(=O)CC(C)(C)C2 (stereo unspecified) the AC50 (Cytochrome P450 1A2) was 15.8 µM (inconclusive).
In the case of COc1cccc(Cn2c(=O)cnc3cnc(Oc4ccccc4)nc32)c1, the AC50 (Cytochrome P450 2C19; read-out: AC50) is reported as 5.01 µM (inconclusive).
For Cc1noc(C)c1C(=O)N1CCC[C@@]2(CCN(C(=O)Nc3ccccc3)C2)C1, the AC50 (Cytochrome P450 1A2) was 39.8 µM (inconclusive).
In the case of COCCn1c(=O)c(-c2cc(F)cc(F)c2)nc2cnc(N3CCOCC3)nc21, the AC50 (Cytochrome P450 1A2) is reported as 12.6 µM (inconclusive).
With CN1CCN(c2ccc(NC(=O)c3ccc(C#N)cc3F)cc2Cl)CC1 the AC50 [2] was 11.9 µM (active).
With CC(=O)NCCNc1ncnc2ccc(-c3c(C)noc3C)cc12 the AC50 (Cytochrome P450 3A4) was 25.1 µM (inconclusive).
In the case of Cc1ccc(OCC(=O)NNC(=O)c2cccnc2)cc1, the AC50 (Cytochrome P450 2C19; read-out: AC50) is reported as 3.16 µM (inconclusive) and the AC50 (Cytochrome P450 3A4) is reported as 25.1 µM (inconclusive).
For O=C(NC(=S)Nc1nc(-c2ccc(Br)cc2)cs1)c1cccnc1, the AC50 (Cytochrome P450 1A2) was 3.55 µM (inconclusive).
For O=C(Nc1ccc(O)c(-c2nc3ccccc3o2)c1)C1(c2ccc(Br)cc2)CCCC1, the AC50 [2] was > 195 µM (inactive).
With CC(C)C(O)(C(C)C)C(C)C the AC50 (Cytochrome P450 2C19) was “inconclusive”.
In the case of CC(C)C12CN3CC(C(C)C)(CN(C1)C3c1ccco1)C2=O (stereo unspecified), the AC50 (Cytochrome P450 2C19; read-out: AC50) is reported as 28.2 µM (inconclusive).
For COc1ccc(NC(=O)CSc2nc(O)cc(=O)n2-c2ccccc2)cc1, the EC50 [3] was 23.1 µM (active) and the EC50 (Streptococcus) was 26.1 µM (active).
With CC[C@H]1OC(=O)[C@H](C)[C@@H](O[C@H]2C[C@@](C)(OC)[C@@H](O)[C@H](C)O2)[C@H](C)[C@@H](O[C@@H]2O[C@H](C)C[C@H](N(C)C)[C@H]2O)[C@](C)(O)C[C@@H](C)C(=NOCOCCOC)[C@H](C)[C@@H](O)[C@]1(C)O the EC50 [3] was < 0.06 µM (active) and the EC50 (Streptococcus) was < 0.06 µM (active).
With CC(=O)C(Sc1ncnc2c1nnn2-c1ccc(F)cc1)C(=O)N(C)C (stereo unspecified) the EC50 (Protein RecA) was 15.7 µM (active) and the AC50 [1] was 21.8 µM (active).
With C#CCCCO/N=C1/C[C@@H](O)[C@@H](O)[C@@H]2[C@@H]3C(=O)N(CCC(=O)OCC)C(=O)[C@H]3CC[C@H]12 the AC50 (Cytochrome P450 3A4) was 5.01 µM (inconclusive).
